Experimental data published in US6584980B1, “Tobacco products with stabilized additives having vitamin E activity” (Rousseau Research, Institute, priority 1998, dated 2003).

Key:
[1] = tested on: smoker and non-smoker; experiment: Comparison of a normal filterless cigarette and a filterless cigarette with dry Vitamin E analog, smoked; type: in vivo
Excerpt: A comparison was made between a normal filterless cigarette and a filterless cigarette modified to include a substantially pure, “dry” form of Vitamin E analog. For this comparison, […] of CHESTERFIELD® tobacco were removed from a CHESTERFIELD® cigarette and mixed with 0.1 grams of Vitamin E acid succinate. The mixed tobacco blend was formed into a filterless cigarette using a Rizla auto rolling box. A control cigarette, without Vitamin E analog additive, was also formed using the same Rizla auto rolling box.

[2] = tested on: non-tobacco user; experiment: Comparison of a normal smokeless tobacco wad and a wad with dry Vitamin E analog, placed between cheek and gum; type: in vivo; details: 0.1 grams mixed with 10.0 grams SKOAL long cut smokeless tobacco, 1.0 gram wad between cheek and gum
Excerpt: A third comparison was made between a normal wad of smokeless tobacco and a wad of smokeless tobacco modified to include a substantially pure, “dry” form of Vitamin E analog. For this comparison, 1.0 gram of unmodified SKOAL® long cut smokeless tobacco (i.e., snuff) was first placed in the mouth of a non-tobacco user between the cheek and gum. This unmodified smokeless tobacco produced a pleasant flavor but also a simultaneous burning sensation in the mouth, throat and esophagus which, along with an induced cough, forced the non-tobacco user to spit out the unmodified smokeless tobacco. To clear the burning sensation from mouth, the non-tobacco user washed mouth out with water. Nonetheless, the burning sensation persisted in the mouth and throat for over 5 minutes after the initial washing.
Approximately four hours later, long enough to ensure the sensitivity and the burning sensation had completely subsided, the non-tobacco user then mixed 0.1 grams of Vitamin E acid succinate obtained from the Eastman Chemical Corporation of Kingsport, Tenn. with 10.0 grams of SKOAL® long cut smokeless tobacco. A 1.0 gram wad of this Vitamin E modified smokeless tobacco was then placed in the mouth of the non-tobacco user between the cheek and gum. Like the unmodified snuff, this Vitamin E modified snuff produced a similar pleasant flavor.

[3] = tested on: non-smoker; experiment: Comparison of a normal filtered cigarette and cigarettes with oily Vitamin E injected into the filter or the tobacco, puffs by a non-smoker; type: in vivo; details: for lung irritation and coughing: three puffs, non-smoker
Excerpt: A second comparison was made between a normal filtered cigarette, a filtered cigarette with oily Vitamin E injected into the filter and oily Vitamin E injected into the length of the tobacco. In this second comparison, the control cigarette was a normal MARLBORO® cigarette. In two separate MARLBORO® cigarettes, oily Vitamin E was taken from a Vitamin E capsule with a syringe and injected into the filter of one cigarette and into the length of the tobacco of the other cigarette.
The three cigarettes where then lit with a butane lighter and three equal, alternating puffs were taken from each cigarette by a non-smoker. […] The cigarette with Vitamin E along the length of the tobacco yielded no irritation. Moreover, the flavor of the Vitamin E tobacco cigarette gave the impression of having been enhanced.

[4] = stand-alone additive, apart from an alcohol mixture; cited from earlier work
[5] = tobacco air curing, vacuum infiltration; cited from earlier work

Cc1c(C)c2c(c(C)c1OC(=O)CCC(=O)O)CC[C@@](C)(CCC[C@H](C)CCC[C@H](C)CCCC(C)C)O2 [Vitamin E acid succinate, d-alpha tocopheryl acid succinate]
throat or lung irritation when smoked ([1]; 0.1 grams mixed with 7.5 grams CHESTERFIELD tobacco, filterless cigarette, smoker and non-smoker, control caused throat and lung irritation): no throat or lung irritation
throat or lung irritation, retest on the same samples ([1]; retest after several days and again after several weeks): the same results
irritation (burning sensation) of mouth, throat and esophagus [2]: completely non-irritating

Cc1c(C)c2c(c(C)c1O)CC[C@@](C)(CCC[C@H](C)CCC[C@H](C)CCCC(C)C)O2 [Vitamin E, d-alpha tocopherol]
lung irritation and coughing ([3]; oily Vitamin E injected into the filter of a MARLBORO cigarette, control irritated lungs and induced coughing): less irritating but still induced an unpleasant lung reaction and a slight cough
lung irritation and coughing ([3]; oily Vitamin E injected into the length of the tobacco of a MARLBORO cigarette): no irritation
beneficial effect on irritation, retest on the same samples ([3]; retest after several days, taken to indicate the Vitamin E had oxidized/metabolized): the beneficial effect was gone
neutralizing NNN [4]: ineffective

Cc1c(C)c2c(c(C)c1O)CC[C@@](C)(CCC[C@H](C)CCC[C@H](C)CCCC(C)C)O2 [alpha-tocopherol]
diminution in concentration during the curing process [5]: 25%
